Test results from patent US11331273B2, “Film-coated tablet having high chemical stability of active ingredient” (Intercept Pharmaceuticals, Inc., priority 2016, dated 2022).
“And” between values parts separate entries of the source, which are not always exact repeats. Equal values may be shown once.

Experiment: Storage stability of obeticholic acid (unmodified) in test tubes: dimer quantified per Test Example 2
Format: physicochemical
Experimental: Obeticholic acid (unmodified) was weighed out in amounts of 5 mg into test tubes to serve as individual samples.
Test Lubes containing the obeticholic acid (unmodified) prepared in Example 1 were stored under the following conditions. The amounts of obeticholic acid dimer generated before (initial) and after storage were measured in accordance with Test Example 2. • Four weeks (4 W) at 50° C. and 85% RH (open) • Four weeks (4 W) at 60° C. (closed)
The amount of obeticholic acid dimer generated was measured in the same manner described in Test Example 1, with the exception that the sample solution was prepared as follows.
Acetonitrile/water (9/1) was added in an amount of exactly 10 mL to test tubes that had been retrieved from storage, and the contents were ultrasounded to extract the obeticholic acid. Following centrifugation (10 min at 3000 rpm), the supernatant was made into samples for HPLC assay (500 μg/mL obeticholic acid).

Amount of obeticholic acid dimer production (%) (50° C., 85% RH, open, 4 W): 0.83%
Increase (%) in obeticholic acid dimerization from initial product (50° C., 85% RH, open, 4 W): 0.79%
Amount of obeticholic acid dimer production (%) (60° C., closed, 4 W): 0.81%
Increase (%) in obeticholic acid dimerization from initial product (60° C., closed, 4 W): 0.77% and 0.78%
Amount of obeticholic acid dimer production (%) (Initial): 0.04%
SMILES: CC[C@H]1[C@@H](O)[C@@H]2[C@H](CC[C@]3(C)[C@@H]([C@H](C)CCC(=O)O)CC[C@@H]23)[C@@]2(C)CC[C@@H](O)C[C@@H]12 [Comparative Example 3, 3α,7α-dihydroxy-6α-ethyl-5β-cholan-24-oic acid]
